Experimental data taken from patent US20260232865A1, “DENDRIMER-BIOADHESIVE POLYMER HYDROGEL NANOGLUE AND USE THEREOF” (The Johns Hopkins University, priority 2016, published 2026).
Read-outs that look alike come from different tables or passages of the source.

Assays:
Format in all cases: in vivo, rat
[1] = tested on: IL-6 mRNA; assay: Cytokine mRNA expression in corneal tissue by RT-PCR: IL-6; details: POD7, normalized to healthy controls, mean±SEM
Procedure: (§1) For cytokine expression analysis, the corneas (n=10, for each group) were snap frozen in liquid nitrogen and homogenized carefully into tissue powder using pre-cooled (in liquid nitrogen) porcelain mortar and pestles. The total RNA was purified with TRIzol reagent (Life Technologies, Grand Island, NY) following the manufacturer's instruction. 3 μg of total RNA was reverse-transcribed to cDNA using High-capacity cDNA Reverse Transcription System (Life Technologies) according to the manufacturer's instructions. qRT-PCR was performed with fast SYBR Green Master Mix (Life Technologies) by a StepOnePlus Real-Time PCR System (Life Technologies). Rat GAPDH was used to normalize the expression levels of target gene and calculated by the comparative cycle threshold Ct method (2^−(ΔΔCt)).

[2] = tested on: MCP-1 mRNA; assay: Cytokine mRNA expression in corneal tissue by RT-PCR: MCP-1
Procedure: as §1

[3] = tested on: corneal alkali burn; details: for Estimated area of NV / CCT: mean±standard deviation; for Opacity score: median (inter-quartile range); for CCT: rat alkali burn, subconjunctival gel, 1.6 mg of Dex/eye
Procedure: All procedures involving animals conformed with the IACUC research guidelines by the Association for Research in Vision and Ophthalmology Statement for the use of Animals in Ophthalmic and Vision Research and Johns Hopkins University. A total of 57 Lewis rats (7 to 8 weeks of age) were obtained from Harlan Laboratories Inc. (Frederick, MD). All animals weighed between 150 and 200 g, and they were housed at constant temperature (20±1° C.) and humidity (50±5%). They were fed standard rat chow and had access to water ad libitum. All procedures and tests were performed under general anesthesia with intramuscular injection of ketamine 0.9% (Bio-niche Pharma, Lake Forest, IL, USA)/xylazine 0.1% (Phoenix Pharmaceuticals, St. Joseph, MO, USA) and topical proparacaine 0.5% (Sandoz, Holzkirchen, Germany). Corneal alkali burn was generated by applying 0.5N NaOH on cornea. Briefly, sample discs SS-033 0.5 cm in diameter (WESCOR, Logan, Utah, USA) were cut in to 4 quadrants. The quadrant was soaked in 0.5N NaOH for 10 seconds and then placed on central cornea for 15 s. The burn area and the conjunctival sac were immediately irrigated with 30 mL of BSS solution using an eyedrop bottle.
Corneal alkali burn was performed on rats as described in Example 7.
After alkali burn, the animals were randomized for treatment in one of the following three groups: (i) Dendrimer-Dexamethasone conjugates entrapped in injectable, dendrimer-hyaluronic acid photocrosslinked gel with a minimal amount of free dexamethasone (D-Dex group, n=10), (ii) free dexamethasone in injectable, dendrimer-hyaluronic acid photocrosslinked gel (free-dex group, n=10), and (iii) no drug, only injectable, dendrimer-hyaluronic acid photocrosslinked gel, n=10. Both D-Dex and free-Dex groups were treated with equivalent Dex basis present in both D-Dex and free Dex formulations (1.6 mg of Dex/eye). […] The free dexamethasone group received a total of 1.6 mg of free dexamethasone. […] All forms of drugs were incorporated into injectable gel formulations (it is the same gel formulation as of example 4). The gel components are premixed and loaded in to the syringe and crosslinked to form gel using UV exposure. At the time of injection the components are in the form of gel) and injected subconjunctivally using 30-gauge, 0.5 cc insulin syringes.
Animals were assessed at baseline and at the following post-exposure time points: 24 hours, 72 hours, and 7 days. A subset of the animals was also followed up to 14 days.
The central corneal thickness (CCT) and stromal structure analysis were done using anterior chamber optical coherence tomography (OCT) (Bioptigen Envisu R-class OCT, Bioptigen, NC, USA).
Changes in intraocular pressure (IOP) were measured using a handheld tonometer (Icare LAB tonometer, Icare, Finland). The settings R for rat were chosen and three individual measurements of IOP were made for each eye for accuracy.
Corneal opacity was scored by grading the degree of transparency as previously reported by Larkin D F, et al., Clin Exp Immunol., 107:381-391 (1997). The estimated area of neovascularization (NV) was assessed by estimating the radial penetration of the neovascular vessels and their extent in degrees, and by assuming a mean corneal […] of 2.5 mm, so that the maximal area of NV was no more than 2.52π mm^2 (=19.63 mm^2).

Question: Which results are given for C[C@@H]1C[C@H]2[C@@H]3CCC4=CC(=O)C=C[C@]4(C)[C@@]3(F)[C@@H](O)C[C@]2(C)[C@@]1(O)C(=O)CO [Free-Dex, Dexamethasone]?
Answer: IL-6 mRNA levels [1]: 3.0±0.3; MCP-1 mRNA levels significantly lower compared to the positive controls ([2]; POD7, p=0.259): not true; MCP-1 mRNA levels ([2]; POD14, corneal tissue, normalized to healthy controls, mean±SEM): 15.4±3.22; Estimated area of NV ([3]; Baseline): 0 ± 0 mm^2; Opacity score ([3]; Baseline, grade 0-4): 0(0); CCT ([3]; Baseline): 142.86 ± 8.68 μm; Estimated area of NV ([3]; POD1): 0 ± 0 mm^2; Opacity score ([3]; POD1, grade 0-4): 3(3); CCT ([3]; POD1): 304.95 ± 87.23 μm; median opacity score ([3]; POD3, grade 0-4): 3.5; Estimated area of NV ([3]; POD3): 3.32 ± 1.65 mm^2; Opacity score ([3]; POD3, grade 0-4): 3.5(1); CCT ([3]; POD3): 357.71 ± 115.58 μm; Estimated area of NV ([3]; POD7): 3.8 ± 2.89 mm^2; Opacity score ([3]; POD7, grade 0-4): 1(1); CCT ([3]; POD7): 229.57 ± 91.54 μm; mean area occupied by neo-vessels ([3]; POD7 as printed in text, spread not defined): 3.32±0.34 mm^2; Estimated area of NV ([3]; POD14): 43.32 ± 5.46 mm^2; Opacity score ([3]; POD14, grade 0-4): 1(2); CCT ([3]; POD14): 226.57 ± 63.67 μm
